Results reported in US8933230B2, “Phosphorus-containing group-substituted quinoline, its preparation process, medical composition containing the compounds and application” (priority 2011, dated 2015).

Assays:
Experiment in all cases: KinomeScan kinase panel
Format in all cases: binding
CAMK2A = target: T1, CAMK2A (Homo sapiens, UniProt Q9UQM7)
T1 construct: purchased DiscoveRx Corporation (KinomeScan)
In short: (§1)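 Single-point screen: 1000 nM compound, KinomeScan panel of 442 kinases.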

PIK3CB = target: T2, PIK3CB (Homo sapiens, UniProt P42338)
T2 construct: purchased DiscoveRx Corporation (KinomeScan)
In short: as §1

DYRK1B = target: T3, DYRK1B (Homo sapiens, UniProt Q9Y463)
T3 construct: purchased DiscoveRx Corporation (KinomeScan)
In short: as §1

PIK3C2G = target: T4, PIK3C2G (Homo sapiens, UniProt O75747)
T4 construct: purchased DiscoveRx Corporation (KinomeScan)
In short: as §1

MAST1 = target: T5, MAST1 (Homo sapiens, UniProt Q9Y2H9)
T5 construct: purchased DiscoveRx Corporation (KinomeScan)
In short: as §1

IGF1R = target: T6, IGF1R (Homo sapiens, UniProt P08069)
T6 construct: purchased DiscoveRx Corporation (KinomeScan)
In short: as §1

LKB1 = target: T7, LKB1 (Homo sapiens, UniProt Q15831)
T7 construct: purchased DiscoveRx Corporation (KinomeScan)
In short: as §1

EGFR(S752-1759del) = target: T8, EGFR(S752-1759del) (Homo sapiens, UniProt P00533, DEL752-759)
T8 construct: purchased DiscoveRx Corporation (KinomeScan)
In short: as §1

MELK = target: T9, MELK (Homo sapiens, UniProt Q14680)
T9 construct: purchased DiscoveRx Corporation (KinomeScan)
In short: as §1

DAPK2 = target: T10, DAPK2 (Homo sapiens, UniProt Q9UIK4)
T10 construct: purchased DiscoveRx Corporation (KinomeScan)
T10 sequence (Q9UIK4 whole entry): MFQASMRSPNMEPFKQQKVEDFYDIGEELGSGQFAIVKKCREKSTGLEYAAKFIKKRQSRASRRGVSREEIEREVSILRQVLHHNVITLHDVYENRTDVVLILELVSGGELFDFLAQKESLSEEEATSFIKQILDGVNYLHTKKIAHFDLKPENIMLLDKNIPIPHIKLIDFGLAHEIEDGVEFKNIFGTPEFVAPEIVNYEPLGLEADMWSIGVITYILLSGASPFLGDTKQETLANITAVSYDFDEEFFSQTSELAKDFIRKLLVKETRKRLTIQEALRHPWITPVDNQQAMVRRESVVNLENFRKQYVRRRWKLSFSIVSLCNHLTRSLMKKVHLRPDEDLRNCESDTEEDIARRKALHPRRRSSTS
In short: as §1

INSRR = target: T11, INSRR (Homo sapiens, UniProt P14616)
T11 construct: purchased DiscoveRx Corporation (KinomeScan)
T11 sequence (P14616 27-1297): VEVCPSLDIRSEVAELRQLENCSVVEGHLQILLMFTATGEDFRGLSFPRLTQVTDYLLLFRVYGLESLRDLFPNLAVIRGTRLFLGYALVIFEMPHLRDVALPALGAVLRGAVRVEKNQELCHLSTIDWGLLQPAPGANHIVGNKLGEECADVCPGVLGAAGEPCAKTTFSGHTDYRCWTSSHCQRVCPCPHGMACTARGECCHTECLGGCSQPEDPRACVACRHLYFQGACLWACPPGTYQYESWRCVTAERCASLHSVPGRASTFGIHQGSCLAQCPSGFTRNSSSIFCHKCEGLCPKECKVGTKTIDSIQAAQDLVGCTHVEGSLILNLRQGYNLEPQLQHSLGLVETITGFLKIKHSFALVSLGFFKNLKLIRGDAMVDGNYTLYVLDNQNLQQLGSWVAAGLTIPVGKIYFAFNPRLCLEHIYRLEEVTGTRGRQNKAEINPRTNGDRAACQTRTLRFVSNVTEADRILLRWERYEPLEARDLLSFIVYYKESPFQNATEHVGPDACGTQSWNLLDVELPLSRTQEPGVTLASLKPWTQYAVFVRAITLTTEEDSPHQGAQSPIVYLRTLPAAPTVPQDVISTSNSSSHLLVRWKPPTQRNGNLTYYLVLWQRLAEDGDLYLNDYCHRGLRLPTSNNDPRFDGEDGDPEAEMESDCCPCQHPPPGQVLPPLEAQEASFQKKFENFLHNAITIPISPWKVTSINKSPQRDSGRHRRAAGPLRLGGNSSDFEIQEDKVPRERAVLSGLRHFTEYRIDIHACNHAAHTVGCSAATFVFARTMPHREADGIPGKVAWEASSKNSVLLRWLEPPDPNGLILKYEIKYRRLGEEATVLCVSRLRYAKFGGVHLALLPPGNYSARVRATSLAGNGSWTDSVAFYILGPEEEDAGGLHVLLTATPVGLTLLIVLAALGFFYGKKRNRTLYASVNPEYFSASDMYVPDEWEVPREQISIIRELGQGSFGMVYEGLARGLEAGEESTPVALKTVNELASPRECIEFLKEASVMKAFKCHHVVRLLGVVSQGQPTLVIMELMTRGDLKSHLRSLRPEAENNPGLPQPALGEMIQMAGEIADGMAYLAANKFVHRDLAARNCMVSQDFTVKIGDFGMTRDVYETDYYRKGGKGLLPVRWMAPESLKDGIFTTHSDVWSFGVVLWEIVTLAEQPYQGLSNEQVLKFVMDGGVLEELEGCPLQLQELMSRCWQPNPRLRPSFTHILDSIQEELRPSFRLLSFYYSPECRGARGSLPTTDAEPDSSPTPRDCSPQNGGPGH
In short: as §1

BIKE = target: T12, BIKE (Homo sapiens, UniProt Q9NSY1)
T12 construct: purchased DiscoveRx Corporation (KinomeScan)
In short: as §1

BRK = target: T13, BRK (Homo sapiens, UniProt Q13882)
T13 construct: purchased DiscoveRx Corporation (KinomeScan)
In short: as §1

EPHB3 = target: T14, EPHB3 (Homo sapiens, UniProt P54753)
T14 construct: purchased DiscoveRx Corporation (KinomeScan)
T14 sequence (P54753 34-998): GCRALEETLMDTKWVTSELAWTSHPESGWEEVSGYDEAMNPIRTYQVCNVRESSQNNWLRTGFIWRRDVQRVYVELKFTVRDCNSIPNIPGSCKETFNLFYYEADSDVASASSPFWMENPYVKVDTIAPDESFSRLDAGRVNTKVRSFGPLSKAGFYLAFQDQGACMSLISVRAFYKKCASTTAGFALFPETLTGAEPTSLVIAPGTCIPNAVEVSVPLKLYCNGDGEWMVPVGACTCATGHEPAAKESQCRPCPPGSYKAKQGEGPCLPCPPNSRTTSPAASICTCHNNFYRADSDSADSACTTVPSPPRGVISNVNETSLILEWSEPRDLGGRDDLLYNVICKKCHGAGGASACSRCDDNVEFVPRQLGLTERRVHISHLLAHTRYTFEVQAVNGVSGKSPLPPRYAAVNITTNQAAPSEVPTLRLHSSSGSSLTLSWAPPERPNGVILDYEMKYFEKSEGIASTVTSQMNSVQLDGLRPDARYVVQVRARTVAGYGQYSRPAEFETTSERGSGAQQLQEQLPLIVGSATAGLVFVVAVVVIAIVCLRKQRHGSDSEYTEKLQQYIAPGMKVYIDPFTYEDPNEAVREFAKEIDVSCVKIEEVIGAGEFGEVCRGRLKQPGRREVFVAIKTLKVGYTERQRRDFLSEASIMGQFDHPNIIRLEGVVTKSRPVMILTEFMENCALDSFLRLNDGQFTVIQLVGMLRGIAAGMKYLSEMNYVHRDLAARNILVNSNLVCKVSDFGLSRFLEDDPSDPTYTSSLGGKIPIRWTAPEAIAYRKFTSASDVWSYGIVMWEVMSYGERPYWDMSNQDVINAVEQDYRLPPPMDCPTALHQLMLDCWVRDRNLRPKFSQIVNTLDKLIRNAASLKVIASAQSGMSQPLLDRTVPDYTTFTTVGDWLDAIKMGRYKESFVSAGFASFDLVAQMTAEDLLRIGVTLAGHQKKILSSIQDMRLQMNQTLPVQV
In short: as §1

PIK3CA(E545K) = target: T15, PIK3CA(E545K) (Homo sapiens, UniProt P42336, E545K)
T15 construct: purchased DiscoveRx Corporation (KinomeScan)
In short: as §1

MAP3K4 = target: T16, MAP3K4 (Homo sapiens, UniProt Q9Y6R4)
T16 construct: purchased DiscoveRx Corporation (KinomeScan)
In short: as §1

IRAK3 = target: T17, IRAK3 (Homo sapiens, UniProt Q9Y616)
T17 construct: purchased DiscoveRx Corporation (KinomeScan)
T17 sequence (Q9Y616 whole entry): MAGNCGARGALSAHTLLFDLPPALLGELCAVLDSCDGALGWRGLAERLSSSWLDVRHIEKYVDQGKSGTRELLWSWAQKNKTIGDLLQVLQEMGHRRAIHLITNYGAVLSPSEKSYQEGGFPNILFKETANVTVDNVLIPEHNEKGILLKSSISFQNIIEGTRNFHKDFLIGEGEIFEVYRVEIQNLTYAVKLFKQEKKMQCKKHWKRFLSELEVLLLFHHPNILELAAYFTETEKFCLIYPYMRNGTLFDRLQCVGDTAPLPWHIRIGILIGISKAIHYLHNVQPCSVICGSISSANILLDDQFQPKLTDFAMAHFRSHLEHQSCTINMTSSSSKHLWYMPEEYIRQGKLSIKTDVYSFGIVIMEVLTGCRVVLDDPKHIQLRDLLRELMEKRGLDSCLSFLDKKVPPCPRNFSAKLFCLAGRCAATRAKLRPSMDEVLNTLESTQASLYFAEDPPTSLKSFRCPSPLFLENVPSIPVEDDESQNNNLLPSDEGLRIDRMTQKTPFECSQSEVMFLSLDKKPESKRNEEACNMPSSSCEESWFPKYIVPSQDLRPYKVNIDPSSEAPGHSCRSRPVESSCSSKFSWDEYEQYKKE
In short: as §1

ANKK1 = target: T18, ANKK1 (Homo sapiens, UniProt Q8NFD2)
T18 construct: purchased DiscoveRx Corporation (KinomeScan)
In short: as §1

PIK3C2B = target: T19, PIK3C2B (Homo sapiens, UniProt O00750)
T19 construct: purchased DiscoveRx Corporation (KinomeScan)
In short: as §1

YES = target: T20, YES (Homo sapiens, UniProt P07947)
T20 construct: purchased DiscoveRx Corporation (KinomeScan service)
In short: as §1

CDK9 = target: T21, CDK9 (Homo sapiens, UniProt P50750)
T21 construct: purchased DiscoveRx Corporation (KinomeScan)
In short: as §1

CSNK2A1 = target: T22, CSNK2A1 (Homo sapiens, UniProt P68400)
T22 construct: purchased DiscoveRx Corporation (KinomeScan)
In short: as §1

MARK4 = target: T23, MARK4 (Homo sapiens, UniProt Q96L34)
T23 construct: purchased DiscoveRx Corporation (KinomeScan)
In short: as §1

MAP4K3 = target: T24, MAP4K3 (Homo sapiens, UniProt Q8IVH8)
T24 construct: purchased DiscoveRx Corporation (KinomeScan)
In short: as §1

EPHA6 = target: T25, EPHA6 (Homo sapiens, UniProt Q9UF33)
T25 construct: purchased DiscoveRx Corporation (KinomeScan)
In short: as §1

SIK = target: T26, SIK (Homo sapiens, UniProt P57059)
T26 construct: purchased DiscoveRx Corporation (KinomeScan)
In short: as §1

RET (M918T) = target: T27, RET (M918T) (Homo sapiens, UniProt P07949, M918T)
T27 construct: purchased DiscoveRx Corporation
T27 sequence (P07949 29-1114 M918T): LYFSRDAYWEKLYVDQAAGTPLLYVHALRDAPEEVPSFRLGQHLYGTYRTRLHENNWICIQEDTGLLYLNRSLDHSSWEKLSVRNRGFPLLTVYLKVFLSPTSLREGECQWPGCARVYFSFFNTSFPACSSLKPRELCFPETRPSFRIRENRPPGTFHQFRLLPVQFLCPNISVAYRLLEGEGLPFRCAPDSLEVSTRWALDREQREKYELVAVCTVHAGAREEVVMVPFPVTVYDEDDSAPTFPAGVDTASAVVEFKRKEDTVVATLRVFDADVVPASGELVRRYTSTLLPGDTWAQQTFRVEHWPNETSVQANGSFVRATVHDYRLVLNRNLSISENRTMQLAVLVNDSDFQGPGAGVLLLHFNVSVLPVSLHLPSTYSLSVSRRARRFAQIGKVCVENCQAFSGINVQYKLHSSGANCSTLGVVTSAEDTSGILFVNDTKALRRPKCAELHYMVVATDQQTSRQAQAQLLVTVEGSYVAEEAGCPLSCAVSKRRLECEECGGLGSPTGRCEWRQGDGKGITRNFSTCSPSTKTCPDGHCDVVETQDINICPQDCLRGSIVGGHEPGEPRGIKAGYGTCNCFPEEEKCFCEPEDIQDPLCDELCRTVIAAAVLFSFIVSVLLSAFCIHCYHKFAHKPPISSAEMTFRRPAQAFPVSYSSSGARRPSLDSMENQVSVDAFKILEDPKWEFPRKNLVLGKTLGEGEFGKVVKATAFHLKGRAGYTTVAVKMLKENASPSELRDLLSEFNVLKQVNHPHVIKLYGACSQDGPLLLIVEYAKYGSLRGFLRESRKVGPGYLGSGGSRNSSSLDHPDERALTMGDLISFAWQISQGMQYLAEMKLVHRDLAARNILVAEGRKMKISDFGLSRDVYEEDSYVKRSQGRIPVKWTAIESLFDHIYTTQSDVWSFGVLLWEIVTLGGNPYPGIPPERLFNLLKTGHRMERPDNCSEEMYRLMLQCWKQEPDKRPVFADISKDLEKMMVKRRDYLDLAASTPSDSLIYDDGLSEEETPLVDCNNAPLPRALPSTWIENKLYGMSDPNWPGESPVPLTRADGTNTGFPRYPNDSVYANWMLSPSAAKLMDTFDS
In short: as §1

RET (V804L) = target: T28, RET (V804L) (Homo sapiens, UniProt P07949, V804L)
T28 construct: purchased DiscoveRx Corporation
T28 sequence (P07949 29-1114 V804L): as the sequence (P07949 29-1114 M918T) above, with V776L, T890M counted along it
In short: as §1

ERK8 = target: T29, ERK8 (Homo sapiens, UniProt Q8TD08)
T29 construct: purchased DiscoveRx Corporation (KinomeScan)
In short: as §1

CSR1 = target: T30, CSR1 (Homo sapiens, UniProt O95747)
T30 construct: purchased DiscoveRx Corporation (KinomeScan panel)
In short: as §1

EGFR(E746-A750del) = target: T31, EGFR(E746-A750del) (Homo sapiens, UniProt P00533, DEL746-750)
T31 construct: purchased DiscoveRx Corporation (KinomeScan)
In short: as §1

EPHA7 = target: T32, EPHA7 (Homo sapiens, UniProt Q15375)
T32 construct: purchased DiscoveRx Corporation (KinomeScan)
In short: as §1

RIOK3 = target: T33, RIOK3 (Homo sapiens, UniProt O14730)
T33 construct: purchased DiscoveRx Corporation
In short: as §1

CDK4-cyclinD1 = target: T34, CDK4-cyclinD1 (Homo sapiens, UniProt P11802)
T34 construct: purchased DiscoveRx Corporation (KinomeScan)
T34 sequence (P11802 whole entry): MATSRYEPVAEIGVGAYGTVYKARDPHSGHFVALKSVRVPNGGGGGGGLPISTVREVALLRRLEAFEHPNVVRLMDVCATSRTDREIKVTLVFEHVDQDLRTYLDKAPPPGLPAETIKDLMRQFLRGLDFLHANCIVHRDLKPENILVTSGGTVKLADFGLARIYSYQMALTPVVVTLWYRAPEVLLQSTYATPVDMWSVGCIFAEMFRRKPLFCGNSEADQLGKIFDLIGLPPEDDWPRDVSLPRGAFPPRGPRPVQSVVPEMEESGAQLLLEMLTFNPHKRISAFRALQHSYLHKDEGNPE
T34 sequence (P24385 whole entry partner): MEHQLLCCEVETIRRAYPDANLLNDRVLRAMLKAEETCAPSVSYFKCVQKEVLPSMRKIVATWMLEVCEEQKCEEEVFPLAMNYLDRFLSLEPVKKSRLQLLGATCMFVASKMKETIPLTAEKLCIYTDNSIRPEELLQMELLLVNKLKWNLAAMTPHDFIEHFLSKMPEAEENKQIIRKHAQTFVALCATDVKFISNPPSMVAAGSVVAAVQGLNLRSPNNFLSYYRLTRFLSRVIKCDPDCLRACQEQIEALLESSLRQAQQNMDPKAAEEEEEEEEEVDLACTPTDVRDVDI
In short: as §1

KIT(D816H) = target: T35, KIT(D816H) (Homo sapiens, UniProt P10721, D816H)
T35 construct: purchased DiscoveRx Corporation (KinomeScan)
In short: as §1

CCOP(=O)(CN1CCC(COc2cc3nccc(Oc4ccc(NC(=O)C5(C(=O)Nc6ccc(F)cc6)CC5)cc4F)c3cc2OC)CC1)OCC [Example 10, N1-[4-[[7-[[1-(diethoxyphosphorylmethyl)-4-piperidinyl]methoxyl]-6-methoxyl-4-quinolyl]oxyl]-3-fluorophenyl]-N1′-(4-fluorophenyl)cyclopropane-1,1-dicarboxamide]
% Ctrl@1000 nM (CAMK2A): 100 % Ctrl
% Ctrl@1000 nM (PIK3CB): 100 % Ctrl
% Ctrl@1000 nM (DYRK1B): 86 % Ctrl
% Ctrl@1000 nM (PIK3C2G): 98 % Ctrl
% Ctrl@1000 nM (MAST1): 100 % Ctrl
% Ctrl@1000 nM (IGF1R): 94 % Ctrl
% Ctrl@1000 nM (LKB1): 100 % Ctrl
% Ctrl@1000 nM (EGFR(S752-1759del)): 82 % Ctrl
% Ctrl@1000 nM (MELK): 29 % Ctrl
% Ctrl@1000 nM (DAPK2): 100 % Ctrl
% Ctrl@1000 nM (INSRR): 65 % Ctrl
% Ctrl@1000 nM (BIKE): 100 % Ctrl
% Ctrl@1000 nM (BRK): 3.0 % Ctrl
% Ctrl@1000 nM (EPHB3): 36 % Ctrl
% Ctrl@1000 nM (PIK3CA(E545K)): 100 % Ctrl
% Ctrl@1000 nM (MAP3K4): 100 % Ctrl
% Ctrl@1000 nM (IRAK3): 33 % Ctrl
% Ctrl@1000 nM (ANKK1): 100 % Ctrl
% Ctrl@1000 nM (PIK3C2B): 100 % Ctrl
% Ctrl@1000 nM (YES): 20 % Ctrl
% Ctrl@1000 nM (CDK9): 100 % Ctrl
% Ctrl@1000 nM (CSNK2A1): 100 % Ctrl
% Ctrl@1000 nM (MARK4): 100 % Ctrl
% Ctrl@1000 nM (MAP4K3): 20 % Ctrl
% Ctrl@1000 nM (EPHA6): 4.8 % Ctrl
% Ctrl@1000 nM (SIK): 60 % Ctrl
% Ctrl@1000 nM (RET (M918T)): 0.05 % Ctrl
% Ctrl@1000 nM (RET (V804L)): 0.35 % Ctrl
% Ctrl@1000 nM (ERK8): 95 % Ctrl
% Ctrl@1000 nM (CSR1): 96 % Ctrl
% Ctrl@1000 nM (EGFR(E746-A750del)): 92 % Ctrl
% Ctrl@1000 nM (EPHA7): 0.8 % Ctrl
% Ctrl@1000 nM (RIOK3): 100 % Ctrl
% Ctrl@1000 nM (CDK4-cyclinD1): 100 % Ctrl
% Ctrl@1000 nM (KIT(D816H)): 63 % Ctrl
